Target: T1, human IDO1 (Homo sapiens, UniProt P14902)
T1 construct: expressed in transfected cells
Assay: HEK Human IDO-1 inhibition assay (kynurenine production in human IDO1/HEK293 cells)
Format: cell-based
Conditions: read-out: Bio Activity (μM) IC50
Description: HEK293 cells were transfected with a pCDNA-based mammalian expression vector harboring human IDO1 cDNA (NM 002164.2) by electroporation. They were cultured in medium (DMEM with 10% FBS) containing 1 mg/ml G418 for two weeks. Clones of HEK293 cells that stably expressed human IDO1 protein were selected and expanded for IDO inhibition assay.
The human IDO1/HEK293 cells were seeded at 10,000 cells per 50 μL per well with RPMI/phenol red free media contains 10% FBS in a 384-well black wall clear bottom tissue culture plate (Matrix Technologies LLC) 100 nL of certain concentration of compound was then added to each well using ECHO liquid handling systems. The cells were incubated for 20 hours in 37° C. incubator with 5% CO2.
The compound treatments were stopped by adding trichloroacetic acid (Sigma-Aldrich) to a final concentration at 0.2%. The cell plate was further incubated at 50° C. for 30 minute. The equal volume supernatant (20 μL) and 0.2% (w/v) Ehrlich reagent (4-dimethylaminobenzaldehyde, Sigma-Aldrich) in glacial acetic acid were mixed in a new clear bottom 384-well plate. This plate was then incubated at room temperature for 30 minute. The absorbance at 490 nm was measured on Envision plate reader.
Compound IC50 values were calculated using the counts of 500 nM of a reference standard treatment as one hundred percent inhibition, and counts of no compound but DMSO treatment as zero percent inhibition.

T1 sequence (P14902 whole entry): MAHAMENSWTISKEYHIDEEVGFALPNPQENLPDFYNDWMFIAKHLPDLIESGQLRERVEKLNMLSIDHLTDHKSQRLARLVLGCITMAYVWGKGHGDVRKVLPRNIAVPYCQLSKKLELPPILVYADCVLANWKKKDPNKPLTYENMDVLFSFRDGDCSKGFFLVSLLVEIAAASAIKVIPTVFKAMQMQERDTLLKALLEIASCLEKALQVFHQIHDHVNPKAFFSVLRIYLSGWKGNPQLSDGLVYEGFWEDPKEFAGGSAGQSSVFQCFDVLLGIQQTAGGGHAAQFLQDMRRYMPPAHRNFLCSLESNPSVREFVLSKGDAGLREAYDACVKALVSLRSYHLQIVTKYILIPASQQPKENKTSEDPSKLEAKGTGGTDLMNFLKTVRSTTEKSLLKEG

Row | IC50 [µM] | SMILES
1 | < 10 | C[C@@H](NC(=O)[C@H](C)[C@H]1CC[C@@H](c2ccnc3ccc(F)cc32)CC1)c1ccc(Cl)cc1 [Example 17, (R)-N-((R)-1-(4-chlorophenyl)ethyl)-2-((1s,4S)-4-(6-fluoroquinolin-4-yl)cyclohexyl)propanamide]
2 | < 0.1 | Cc1cc(Cl)ccc1CNC(=O)CC1(C)CCN(c2ccnc3ccc(F)cc23)CC1 [Example 1, N-(4-Chloro-2-methylbenzyl)-2-(1-(6-fluoroquinolin-4-yl)-4-methylpiperidin-4-yl)acetamide]
3 | < 1 | C[C@@H](C(=O)NC1(c2ccc(Cl)cc2Cl)CC1)[C@H]1CC[C@@H](c2ccnc3ccc(F)cc32)CC1 [Example 16, (R)-N-(1-(2,4-dichlorophenyl)cyclopropyl)-2-((cis)-4-(6-fluoroquinolin-4-yl)cyclohexyl)propanamide]
4 | < 1 | CC1(CC(=O)N[C@@]23C[C@@H]4C[C@@H](C[C@@](O)(C4)C2)C3)CCN(c2ccnc3ccc(F)cc23)CC1 [Example 23, 2-(1-(6-Fluoroquinolin-4-yl)-4-methylpiperidin-4-yl)-N-((1r,3s,5R,7S)-3-hydroxyadamantan-1-yl)acetamide]
5 | < 1 | CC1(CC(=O)NCc2ccc(Cl)cc2)CCN(c2ccnc3ccc(F)cc23)CC1 [Example 5, N-(4-chlorobenzyl)-2-(1-(6-fluoroquinolin-4-yl)-4-methylpiperidin-4-yl)acetamide]
6 | < 1 | C[C@@H](C(=O)NCc1ccc(-c2ccccc2)cc1)[C@H]1CC[C@@H](c2ccnc3ccc(F)cc32)CC1 [Example 12, (R)-N-([1,1′-biphenyl]-4-ylmethyl)-2-((cis)-4-(6-fluoroquinolin-4-yl)cyclohexyl)propanamide]
7 | < 10 | C[C@@H](C(=O)NCc1ccccc1)[C@H]1CC[C@@H](c2ccnc3ccc(F)cc32)CC1 [Example 18]
8 | < 1 | C[C@H](NC(=O)CC1(C)CCN(c2ccnc(C(F)(F)F)c2)CC1)c1ccc(Cl)cc1 [Example 9, (S)-N-(1-(4-chlorophenyl)ethyl)-2-(4-methyl-1-(2-(trifluoromethyl)-pyridin-4-yl)piperidin-4-yl)acetamide]
9 | < 10 | CCCC(C(=O)NC12CC3CC(CC(C3)C1)C2)N1CCN(c2ccnc3ccc(F)cc23)CC1 (single isomer, unassigned) [Example 19-1]
10 | < 1 | C[C@@H](C(=O)NC(C)(C)c1ccc(Cl)cc1)[C@H]1CC[C@@H](c2ccnc3ccc(F)cc32)CC1 [Example 15, (R)-N-(2-(4-chlorophenyl)propan-2-yl)-2-((cis)-4-(6-fluoroquinolin-4-yl)cyclohexyl)propanamide]
11 | < 0.1 | C[C@H](NC(=O)CC1(C)CCN(c2ccnc3ccc(F)cc23)CC1)c1ccc(Cl)cc1 [Example 4, (S)-N-(1-(4-chlorophenyl)ethyl)-2-(1-(6-fluoroquinolin-4-yl)-4-methylpiperidin-4-yl)acetamide]
12 | < 0.1 | CC1(CC(=O)NC2(c3ccc(Cl)cc3Cl)CC2)CCN(c2ccnc3ccc(F)cc23)CC1 [Example 2, N-(1-(2,4-dichlorophenyl)cyclo-propyl)-2-(1-(6-fluoroquinolin-4-yl)-4-methylpiperidin-4-yl)acetamide]
13 | < 1 | CC1(CC(=O)NC2(c3ccc(Cl)cc3Cl)CC2)CCN(c2ccnc(C(F)(F)F)c2)CC1 [Example 7, N-(1-(2,4-dichlorophenyl)cyclo-propyl)-2-(4-methyl-1-(2-(trifluoro-methyl)pyridin-4-yl)piperidin-4-yl)acetamide]
14 | < 0.1 | CC1(CC(=O)NC(C)(C)c2ccc(Cl)cc2)CCN(c2ccnc3ccc(F)cc23)CC1 [Example 3, N-(2-(4-chlorophenyl)propan-2-yl)-2-(1-(6-fluoroquinolin-4-yl)-4-methylpiperidin-4-yl)acetamide]
15 | < 10 | CC1(CC(=O)NC(C)(C)c2ccc(Cl)cc2)CCN(c2ccnc(C(F)(F)F)c2)CC1 [Example 8, N-(2-(4-chlorophenyl)propan-2-yl)-2-(4-methyl-1-(2-(trifluoromethyl)-pyridin-4-yl)piperidin-4-yl)acetamide]
16 | < 1 | C[C@@H](C(=O)NCc1ccccc1Cl)[C@H]1CC[C@@H](c2ccnc3ccc(F)cc32)CC1 [Example 10, (R)—N-(2-chlorobenzyl)-2-((cis)-4-(6-fluoroquinolin-4-yl)cyclohexyl)propanamide]
17 | < 1 | CC[C@H](NC(=O)CC1(C)CCN(c2ccnc(C(F)(F)F)c2)CC1)c1ccccc1 [Example 6, (S)-2-(4-Methyl-1-(2-(trifluoromethyl)pyridin-4-yl)piperidin-4-yl)-N-(1-phenylpropyl)acetamide]
18 | < 0.1 | C[C@H](NC(=O)[C@H](C)[C@H]1CC[C@@H](c2ccnc3ccc(F)cc32)CC1)c1ccc(Cl)cc1 [Example 14, (R)-N-((S)-1-(4-chlorophenyl)ethyl)-2-((cis)-4-(6-fluoroquinolin-4-yl)cyclohexyl)propanamide]
19 | < 1 | C[C@H](NC(=O)[C@H](C)[C@H]1CC[C@@H](c2ccnc3ccc(F)cc32)CC1)c1ccccc1 [Example 13, (R)-2-((cis)-4-(6-fluoroquinolin-4-yl)cyclohexyl)-N-((S)-1-phenylethyl)propanamide]
20 | < 0.1 | CC1(CC(=O)NC23CC4CC(CC(C4)C2)C3)CCN(c2ccnc3ccc(F)cc23)CC1 [Example 22, N-((3s,5s,7s)-Adamantan-1-yl)-2-(1-(6-fluoroquinolin-4-yl)-4-methylpiperidin-4-yl)acetamide]

— patent US11066383B2, “Inhibitors of indoleamine 2,3-dioxygenase and methods of their use” (BRISTOL-MYERS SQUIBB COMPANY, priority 2016, dated 2021)
